Like-named read-outs stand apart in the source and are kept apart here.
Columns and labels:
Type in all cases: cell-based
hGIPR = target: T1, hGIPR (Homo sapiens, UniProt P48546); experiment: Functional cAMP formation (HTRF) in HEK-293 clonal cells expressing hGIPR, 0.1% bovine casein, without or with 1.0% human serum albumin; conditions: for EC50: geometric mean, read-out: hGIPR EC50, nM (SEM, n); for Emax: read-out: hGIPR Emax, % ± SEM
T1 construct: expressed in transfected cells
T1 sequence (P48546 22-466): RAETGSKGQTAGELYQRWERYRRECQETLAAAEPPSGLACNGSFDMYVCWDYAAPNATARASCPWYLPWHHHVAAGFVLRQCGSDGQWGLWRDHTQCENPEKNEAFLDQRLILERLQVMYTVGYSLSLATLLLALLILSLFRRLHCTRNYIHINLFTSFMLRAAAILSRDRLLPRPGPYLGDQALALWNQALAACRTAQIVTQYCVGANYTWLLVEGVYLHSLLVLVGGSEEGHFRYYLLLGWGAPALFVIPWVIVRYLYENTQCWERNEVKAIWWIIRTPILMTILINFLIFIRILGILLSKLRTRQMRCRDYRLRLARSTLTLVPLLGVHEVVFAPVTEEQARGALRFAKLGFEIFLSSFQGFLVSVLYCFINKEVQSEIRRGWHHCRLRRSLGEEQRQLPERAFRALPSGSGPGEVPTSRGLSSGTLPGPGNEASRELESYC
Procedure, shortened: (§1)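 Readings of the HTRF 665/620 nm ratio, which falls as cAMP rises, were converted to nM cAMP using a standard curve after 30 min peptide exposure at 37° C.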

hGLP-1R = hGLP-1R (Homo sapiens, UniProt P43220); experiment: Functional cAMP formation (HTRF) in HEK-293 clonal cells expressing hGLP-1R, 0.1% bovine casein, without or with 1.0% human serum albumin; parameters: expressed in transfected cells; conditions: for EC50: geometric mean, read-out: hGLP-1R EC50, nM (SEM, n); for Emax: read-out: hGLP-1R Emax, % ± SEM
Procedure, shortened: as §1

hGCGR = target: T2, hGCGR (Homo sapiens, UniProt P47871); experiment: Functional cAMP formation (HTRF) in HEK-293 clonal cells expressing hGCGR, 0.1% bovine casein, without or with 1.0% human serum albumin; conditions: geometric mean, read-out: hGCGR EC50, nM (SEM, n)
T2 construct: expressed in transfected cells
Procedure, shortened: as §1

[1] = 0.1% bovine casein and 1.0% human serum albumin, 37° C.
[2] = HEK293, 0.1% bovine casein and 1.0% human serum albumin, 37° C., percent of maximal response to GIP(1-42)NH2
[3] = cAMP, incubated at 37° C., 0.1% bovine casein (no human serum albumin)
[4] = HEK293, percent of maximal response to GIP(1-42)NH2, 37° C., 0.1% bovine casein, arithmetic mean
[5] = HEK293, 0.1% bovine casein and 1.0% human serum albumin, 37° C., percent of maximal response to GLP-1(7-36)NH2
[6] = HEK293, percent of maximal response to GLP-1(7-36)NH2, 37° C., 0.1% bovine casein, arithmetic mean

T2 sequence (P47871 26-477): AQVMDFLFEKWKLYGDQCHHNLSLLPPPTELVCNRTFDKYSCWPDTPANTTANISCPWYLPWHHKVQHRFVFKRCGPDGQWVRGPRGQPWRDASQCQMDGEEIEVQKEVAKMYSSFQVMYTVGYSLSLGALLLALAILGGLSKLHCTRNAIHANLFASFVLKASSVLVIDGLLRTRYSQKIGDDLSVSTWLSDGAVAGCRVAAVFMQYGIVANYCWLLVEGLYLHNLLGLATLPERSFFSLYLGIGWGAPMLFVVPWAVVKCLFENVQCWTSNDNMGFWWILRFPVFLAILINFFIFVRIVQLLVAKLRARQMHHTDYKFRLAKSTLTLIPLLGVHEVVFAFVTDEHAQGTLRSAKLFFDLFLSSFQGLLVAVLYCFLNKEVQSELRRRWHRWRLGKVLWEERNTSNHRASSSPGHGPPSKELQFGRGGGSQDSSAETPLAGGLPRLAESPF
Sequence of hGLP-1R (P43220 24-463): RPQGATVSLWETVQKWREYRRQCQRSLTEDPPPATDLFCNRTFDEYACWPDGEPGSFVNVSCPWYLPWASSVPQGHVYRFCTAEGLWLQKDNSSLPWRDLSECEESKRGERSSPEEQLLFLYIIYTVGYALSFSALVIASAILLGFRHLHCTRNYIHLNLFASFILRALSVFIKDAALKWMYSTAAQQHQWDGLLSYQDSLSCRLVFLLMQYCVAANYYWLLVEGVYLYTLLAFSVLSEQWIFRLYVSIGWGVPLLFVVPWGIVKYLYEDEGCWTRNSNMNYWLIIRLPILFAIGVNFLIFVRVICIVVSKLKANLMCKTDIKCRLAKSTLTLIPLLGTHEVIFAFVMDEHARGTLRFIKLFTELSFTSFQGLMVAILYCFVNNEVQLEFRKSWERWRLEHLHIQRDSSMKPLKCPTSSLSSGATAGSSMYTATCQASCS

SMILES	EC50 (hGIPR; [1])	Emax (hGIPR; [2])	EC50 (hGIPR; [3])	EC50 (hGLP-1R; [1])	EC50 (hGLP-1R; [3])	EC50 (hGCGR; [1])	EC50 (hGCGR; [3])	Emax (hGIPR; [4])	Emax (hGLP-1R; [5])	Emax (hGLP-1R; [6])
CC[C@H](C)[C@H](NC(=O)[C@H](CCCN)NC(=O)[C@H](CC(=O)O)NC(=O)[C@H](CC(C)C)NC(=O)[C@](C)(CC(C)C)NC(=O)[C@@H](NC(=O)[C@H](CO)NC(=O)[C@H](Cc1ccncc1)NC(=O)[C@H](CC(=O)O)NC(=O)[C@H](CO)NC(=O)[C@@H](NC(=O)[C@](C)(Cc1ccccc1F)NC(=O)[C@@H](NC(=O)CNC(=O)[C@H](CCC(=O)O)NC(=O)C(C)(C)NC(=O)[C@@H](N)Cc1ccc(O)cc1)[C@@H](C)O)[C@@H](C)O)[C@@H](C)CC)C(=O)N[C@@H](C)C(=O)N[C@@H](CCC(N)=O)C(=O)NC(C)(C)C(=O)N[C@@H](CCC(=O)O)C(=O)N[C@@H](Cc1ccccc1)C(=O)N[C@H](C(=O)N[C@@H](CCCCNC(=O)[C@@H](N)CCCCNC(=O)CC[C@H](NC(=O)CCCCCCCCCCCCC(=O)O)C(=O)O)C(=O)N[C@@](C)(Cc1ccc(O)cc1)C(=O)N[C@@H](CC(C)C)C(=O)N[C@H](C(=O)N[C@@H](CCC(=O)O)C(=O)NCC(=O)NCC(=O)N[C@@H](CCCCNC(=O)[C@@H](N)CCCCNC(=O)CC[C@H](NC(=O)CCCCCCCCCCCCC(=O)O)C(=O)O)C(=O)N[C@@H](CO)C(=O)N[C@@H](CO)C(=O)NCC(=O)N[C@@H](C)C(=O)N1CCC[C@H]1C(=O)N1CCC[C@H]1C(=O)N1CCC[C@H]1C(=O)N[C@@H](CO)C(N)=O)[C@@H](C)CC)[C@@H](C)CC [Example 197]	2.06 nM	84.5 ± 4.08%	0.0338 nM	26.2 nM	0.336 nM	> 9950 nM	> 9950 nM	–	–	–
CC[C@H](C)[C@H](NC(=O)[C@H](CCCN)NC(=O)[C@H](CC(=O)O)NC(=O)[C@H](CC(C)C)NC(=O)[C@](C)(CC(C)C)NC(=O)[C@@H](NC(=O)[C@H](CO)NC(=O)[C@H](Cc1ccncc1)NC(=O)[C@H](CC(=O)O)NC(=O)[C@H](CO)NC(=O)[C@@H](NC(=O)[C@](C)(Cc1ccccc1F)NC(=O)[C@@H](NC(=O)CNC(=O)[C@H](CCC(=O)O)NC(=O)C(C)(C)NC(=O)[C@@H](N)Cc1ccc(O)cc1)[C@@H](C)O)[C@@H](C)O)[C@@H](C)CC)C(=O)N[C@@H](C)C(=O)N[C@@H](CCC(N)=O)C(=O)NC(C)(C)C(=O)N[C@@H](CCC(=O)O)C(=O)N[C@@H](Cc1ccccc1)C(=O)N[C@H](C(=O)N[C@@H](CCCCNC(=O)[C@@H](N)CCCCNC(=O)[C@@H](N)CCCCNC(=O)CC[C@H](NC(=O)CCCCCCCCCCCCC(=O)O)C(=O)O)C(=O)N[C@@](C)(Cc1ccc(O)cc1)C(=O)N[C@@H](CC(C)C)C(=O)N[C@H](C(=O)N[C@@H](CCC(=O)O)C(=O)NCC(=O)NCC(=O)N[C@@H](CCCCNC(=O)[C@@H](N)CCCCNC(=O)[C@@H](N)CCCCNC(=O)CC[C@H](NC(=O)CCCCCCCCCCCCC(=O)O)C(=O)O)C(=O)N[C@@H](CO)C(=O)N[C@@H](CO)C(=O)NCC(=O)N[C@@H](C)C(=O)N1CCC[C@H]1C(=O)N1CCC[C@H]1C(=O)N1CCC[C@H]1C(=O)N[C@@H](CO)C(N)=O)[C@@H](C)CC)[C@@H](C)CC [Example 198]	–	83.1 ± 3.45%	0.0269 nM	14.5 nM	0.362 nM	> 9950 nM	> 9950 nM	94 ± 1.17%	–	–
CC[C@H](C)[C@H](NC(=O)[C@H](CC(C)C)NC(=O)[C@](C)(Cc1ccc(O)cc1)NC(=O)[C@@H](CCC(=O)O)NC(=O)[C@@H](NC(=O)[C@H](Cc1ccccc1)NC(=O)[C@H](CCC(=O)O)NC(=O)C(C)(C)NC(=O)[C@H](CCC(N)=O)NC(=O)[C@H](C)NC(=O)[C@H](CCCCNC(=O)COCCOCCNC(=O)COCCOCCNC(=O)CC[C@H](NC(=O)CCCCCCCCCCCCC(=O)O)C(=O)O)NC(=O)[C@H](CCCN)NC(=O)[C@H](CC(=O)O)NC(=O)[C@H](CC(C)C)NC(=O)[C@](C)(CC(C)C)NC(=O)[C@@H](NC(=O)[C@H](CN)NC(=O)[C@H](Cc1ccncc1)NC(=O)[C@H](CC(=O)O)NC(=O)[C@H](CO)NC(=O)[C@@H](NC(=O)[C@](C)(Cc1ccccc1F)NC(=O)[C@@H](NC(=O)CNC(=O)[C@H](CCC(=O)O)NC(=O)C(C)(C)NC(=O)[C@@H](N)Cc1ccc(O)cc1)[C@@H](C)O)[C@@H](C)O)[C@@H](C)CC)[C@@H](C)CC)C(=O)N[C@@H](CCC(=O)O)C(=O)NCC(=O)NCC(=O)N[C@@H](CCCCNC(=O)COCCOCCNC(=O)COCCOCCNC(=O)CC[C@H](NC(=O)CCCCCCCCCCCCC(=O)O)C(=O)O)C(=O)N[C@@H](CO)C(=O)N[C@@H](CO)C(=O)NCC(=O)N[C@@H](C)C(=O)N1CCC[C@H]1C(=O)N1CCC[C@H]1C(=O)N1CCC[C@H]1C(=O)N[C@@H](CO)C(N)=O [Example 199]	–	77.1%	0.0587 nM	–	–	> 9950 nM	> 9950 nM	96.9 ± 1.48%	100%	96.7 ± 6.69%
CC[C@H](C)[C@H](NC(=O)[C@H](CC(C)C)NC(=O)[C@](C)(Cc1ccc(O)cc1)NC(=O)[C@@H](CCC(=O)O)NC(=O)[C@@H](NC(=O)[C@H](Cc1ccccc1)NC(=O)[C@H](CCC(=O)O)NC(=O)C(C)(C)NC(=O)[C@H](CCC(N)=O)NC(=O)[C@H](C)NC(=O)[C@H](CCCCNC(=O)COCCOCCNC(=O)COCCOCCNC(=O)CC[C@H](NC(=O)CCCCCCCCCCCCC(=O)O)C(=O)O)NC(=O)[C@H](CCCN)NC(=O)[C@H](CC(=O)O)NC(=O)[C@H](CC(C)C)NC(=O)[C@](C)(CC(C)C)NC(=O)[C@@H](NC(=O)[C@H](CN)NC(=O)[C@H](Cc1ccc(O)cc1)NC(=O)[C@H](CC(=O)O)NC(=O)[C@H](CO)NC(=O)[C@@H](NC(=O)[C@](C)(Cc1ccccc1F)NC(=O)[C@@H](NC(=O)CNC(=O)[C@H](CCC(=O)O)NC(=O)C(C)(C)NC(=O)[C@@H](N)Cc1ccc(O)cc1)[C@@H](C)O)[C@@H](C)O)[C@@H](C)CC)[C@@H](C)CC)C(=O)N[C@@H](CCC(=O)O)C(=O)NCC(=O)NCC(=O)N[C@@H](CCCCNC(=O)COCCOCCNC(=O)COCCOCCNC(=O)CC[C@H](NC(=O)CCCCCCCCCCCCC(=O)O)C(=O)O)C(=O)N[C@@H](CO)C(=O)N[C@@H](CO)C(=O)NCC(=O)N[C@@H](C)C(=O)N1CCC[C@H]1C(=O)N1CCC[C@H]1C(=O)N1CCC[C@H]1C(=O)N[C@@H](CO)C(N)=O [Example 200]	–	83.7%	–	26.6 nM	–	> 9950 nM	> 9950 nM	96.3 ± 2.76%	97.4%	–
CC[C@H](C)[C@H](NC(=O)[C@H](CC(C)C)NC(=O)[C@](C)(Cc1ccc(O)cc1)NC(=O)[C@@H](CCC(=O)O)NC(=O)[C@@H](NC(=O)[C@H](Cc1ccccc1)NC(=O)[C@H](CCC(=O)O)NC(=O)C(C)(C)NC(=O)[C@H](CCC(N)=O)NC(=O)[C@H](C)NC(=O)[C@H](CCCCNC(=O)COCCOCCNC(=O)COCCOCCNC(=O)CC[C@H](NC(=O)CCCCCCCCCCCCC(=O)O)C(=O)O)NC(=O)[C@H](CCCN)NC(=O)[C@H](CC(=O)O)NC(=O)[C@H](CC(C)C)NC(=O)[C@](C)(CC(C)C)NC(=O)[C@@H](NC(=O)[C@H](CN)NC(=O)[C@@H](NC(=O)[C@H](CC(=O)O)NC(=O)[C@H](CO)NC(=O)[C@@H](NC(=O)[C@](C)(Cc1ccccc1F)NC(=O)[C@@H](NC(=O)CNC(=O)[C@H](CCC(=O)O)NC(=O)C(C)(C)NC(=O)[C@@H](N)Cc1ccc(O)cc1)[C@@H](C)O)[C@@H](C)O)C(C)C)[C@@H](C)CC)[C@@H](C)CC)C(=O)N[C@@H](CCC(=O)O)C(=O)NCC(=O)NCC(=O)N[C@@H](CCCCNC(=O)COCCOCCNC(=O)COCCOCCNC(=O)CC[C@H](NC(=O)CCCCCCCCCCCCC(=O)O)C(=O)O)C(=O)N[C@@H](CO)C(=O)N[C@@H](CO)C(=O)NCC(=O)N[C@@H](C)C(=O)N1CCC[C@H]1C(=O)N1CCC[C@H]1C(=O)N1CCC[C@H]1C(=O)N[C@@H](CO)C(N)=O [Example 201]	–	80.5%	–	25.1 nM	–	> 9950 nM	> 9950 nM	92.2 ± 3.26%	–	105 ± 4.51%

— patent publication US20230265151A1, “GIP/GLP1 CO-AGONIST COMPOUNDS” (priority 2020, published 2023)
